Numbered stars: 1 amine (or outer) side, 2 acyl side, 3 side chain; on linkers, the order of the positions; unused ones are H or OH. Square brackets hold non-standard residues; d marks the D form. Peptide text beside a SMILES is read from it. * marks the point of attachment. Hexanoyl(5S-NH,4S-OH,6-Ph) = O=C(CC[C@H](O)[C@H](Cc1ccccc1)N[*:1])[*:2]; X3 = O=C([C@H](Cc1ccccc1)C[C@H](O)[C@H](Cc1ccccc1)N[*:1])[*:2]; X4 = CC(C)C[C@H](C[C@H](O)[C@H](Cc1ccccc1)N[*:1])C(=O)[*:2]; X1 = CCC[C@H](C[C@H](O)[C@H](Cc1ccccc1)N[*:1])C(=O)[*:2]; X2 = C[C@H](C[C@H](O)[C@H](Cc1ccccc1)N[*:1])C(=O)[*:2]; Cbz = O=C(OCc1ccccc1)*
Biological target: Human immunodeficiency virus type 1 protease (Human immunodeficiency virus 1, UniProt Q72874)
Assay: Binding affinity towards human immunodeficiency virus type 1 protease determined using continuum electrostatics solvation

Question: With CC(C)C(NC(=O)CC[C@H](O)C(Cc1ccccc1)NC(=O)OC(C)(C)C)C(N)=O (some centres undefined) as the compound, how does the Ki read?
Answer: 6500 nM

Question: COC(=O)[C@@H](NC(=O)[C@@H](NC(=O)[C@H](CC(C)C)C[C@H](O)[C@H](Cc1ccccc1)NC(=O)[C@H](C)NC(=O)[C@H](C)NC(=O)OCc1ccccc1)C(C)C)C(C)C (Cbz-AA[X4]VV-OMe) was tested. Which Ki did it give?
Answer: 0.8 nM

Question: How did the Ki turn out when CC(C)C[C@H](C[C@H](O)C(Cc1ccccc1)NC(=O)C(C)NC(=O)OCc1ccccc1)C(=O)NC(C(N)=O)C(C)C (some centres undefined) was run?
Answer: 3.9 nM

Question: Which Ki does the source give for CCC[C@H](C[C@H](O)C(Cc1ccccc1)NC(=O)OC(C)(C)C)C(=O)NC(C(N)=O)C(C)C (some centres undefined) here?
Answer: 50 nM

Question: For COC(=O)C(NC(=O)C(NC(=O)CC[C@H](O)C(Cc1ccccc1)NC(=O)C(C)NC(=O)OCc1ccccc1)C(C)C)C(C)C (some centres undefined), which Ki is on record?
Answer: 118 nM

Question: CC(NC(=O)OCc1ccccc1)C(=O)NC(Cc1ccccc1)[C@@H](O)CCC(=O)NC(C(N)=O)C(C)C (some centres undefined) was tested. Which Ki did it give?
Answer: 2500 nM

Question: How did the Ki turn out when COC(=O)C(NC(=O)C(NC(=O)[C@H](CC(C)C)C[C@H](O)C(Cc1ccccc1)NC(=O)C(C)NC(=O)OCc1ccccc1)C(C)C)C(C)C (some centres undefined) was run?
Answer: 0.9 nM

Question: For COC(=O)[C@@H](NC(=O)[C@@H](NC(=O)[C@H](CC(C)C)C[C@H](O)[C@H](Cc1ccccc1)NC(=O)[C@H](C)NC(=O)[C@H](C)N)C(C)C)C(C)C (H-AA[X4]VV-OMe), which Ki is on record?
Answer: 0.6 nM

Question: Which Ki does the source give for COC(=O)[C@@H](NC(=O)[C@@H](NC(=O)[C@H](C)C[C@H](O)[C@H](Cc1ccccc1)NC(=O)[C@H](C)NC(=O)[C@H](C)NC(=O)OCc1ccccc1)C(C)C)C(C)C (Cbz-AA[X2]VV-OMe) here?
Answer: 0.6 nM

Question: With CC(NC(=O)OCc1ccccc1)C(=O)NC(Cc1ccccc1)[C@@H](O)C[C@@H](C)C(=O)NC(C(N)=O)C(C)C (some centres undefined) as the compound, how does the Ki read?
Answer: 50 nM

Question: With CCC[C@H](C[C@H](O)[C@H](Cc1ccccc1)NC(=O)[C@H](C)NC(=O)[C@H](C)N)C(=O)N[C@H](C(=O)N[C@H](C(=O)OC)C(C)C)C(C)C (H-AA[X1]VV-OMe) as the compound, how does the Ki read?
Answer: 1.2 nM

Question: For CC(C)C[C@H](C[C@H](O)C(Cc1ccccc1)NC(=O)OC(C)(C)C)C(=O)NC(C(N)=O)C(C)C (some centres undefined), which Ki is on record?
Answer: 23 nM

Question: Which Ki does the source give for COC(=O)C(NC(=O)C(NC(=O)[C@H](Cc1ccccc1)C[C@H](O)C(Cc1ccccc1)NC(=O)C(C)NC(=O)OCc1ccccc1)C(C)C)C(C)C (some centres undefined) here?
Answer: 0.6 nM

Question: Which Ki does the source give for CCC[C@H](C[C@H](O)[C@H](Cc1ccccc1)NC(=O)[C@H](C)NC(=O)[C@H](C)NC(=O)OCc1ccccc1)C(=O)N[C@H](C(=O)N[C@H](C(=O)OC)C(C)C)C(C)C (Cbz-AA[X1]VV-OMe) here?
Answer: 0.4 nM

Question: With CC(C)C(NC(=O)[C@H](Cc1ccccc1)C[C@H](O)C(Cc1ccccc1)NC(=O)OC(C)(C)C)C(N)=O (some centres undefined) as the compound, how does the Ki read?
Answer: 1.4 nM

Question: Which Ki does the source give for COC(=O)[C@@H](NC(=O)[C@@H](NC(=O)CC[C@H](O)[C@H](Cc1ccccc1)NC(=O)[C@H](C)NC(=O)[C@H](C)N)C(C)C)C(C)C (H-AA[Hexanoyl(5S-NH,4S-OH,6-Ph)]VV-OMe) here?
Answer: 4 nM

Question: With COC(=O)C(NC(=O)C(NC(=O)[C@H](C)C[C@H](O)C(Cc1ccccc1)NC(=O)C(C)NC(=O)OCc1ccccc1)C(C)C)C(C)C (some centres undefined) as the compound, how does the Ki read?
Answer: 1.6 nM

Question: CCC[C@H](C[C@H](O)C(Cc1ccccc1)NC(=O)C(C)NC(=O)OCc1ccccc1)C(=O)NC(C(=O)NC(C(=O)OC)C(C)C)C(C)C (some centres undefined) was tested. Which Ki did it give?
Answer: 0.6 nM

Question: COC(=O)[C@@H](NC(=O)[C@@H](NC(=O)CC[C@H](O)[C@H](Cc1ccccc1)NC(=O)[C@H](C)NC(=O)[C@H](C)NC(=O)OCc1ccccc1)C(C)C)C(C)C (Cbz-AA[Hexanoyl(5S-NH,4S-OH,6-Ph)]VV-OMe) was tested. Which Ki did it give?
Answer: 44 nM

Question: For COC(=O)[C@@H](NC(=O)[C@@H](NC(=O)[C@H](Cc1ccccc1)C[C@H](O)[C@H](Cc1ccccc1)NC(=O)[C@H](C)NC(=O)[C@H](C)NC(=O)OCc1ccccc1)C(C)C)C(C)C (Cbz-AA[X3]VV-OMe), which Ki is on record?
Answer: 0.4 nM

Question: How did the Ki turn out when COC(=O)[C@@H](NC(=O)[C@@H](NC(=O)[C@H](C)C[C@H](O)[C@H](Cc1ccccc1)NC(=O)[C@H](C)NC(=O)[C@H](C)N)C(C)C)C(C)C (H-AA[X2]VV-OMe) was run?
Answer: 3 nM

Question: CC(NC(=O)OCc1ccccc1)C(=O)NC(Cc1ccccc1)[C@@H](O)C[C@@H](Cc1ccccc1)C(=O)NC(C(N)=O)C(C)C (some centres undefined) was tested. Which Ki did it give?
Answer: 0.6 nM

Question: With CC(C)C(NC(=O)[C@H](C)C[C@H](O)C(Cc1ccccc1)NC(=O)OC(C)(C)C)C(N)=O (some centres undefined) as the compound, how does the Ki read?
Answer: 260 nM

Question: How did the Ki turn out when CCC[C@H](C[C@H](O)C(Cc1ccccc1)NC(=O)C(C)NC(=O)OCc1ccccc1)C(=O)NC(C(N)=O)C(C)C (some centres undefined) was run?
Answer: 20 nM

Biological target: Beta-secretase 1 (Homo sapiens, UniProt P56817)
Assay: Binding affinity towards Beta-secretase determined using continuum electrostatics solvation

Sequence of Beta-secretase 1 (P56817 whole entry): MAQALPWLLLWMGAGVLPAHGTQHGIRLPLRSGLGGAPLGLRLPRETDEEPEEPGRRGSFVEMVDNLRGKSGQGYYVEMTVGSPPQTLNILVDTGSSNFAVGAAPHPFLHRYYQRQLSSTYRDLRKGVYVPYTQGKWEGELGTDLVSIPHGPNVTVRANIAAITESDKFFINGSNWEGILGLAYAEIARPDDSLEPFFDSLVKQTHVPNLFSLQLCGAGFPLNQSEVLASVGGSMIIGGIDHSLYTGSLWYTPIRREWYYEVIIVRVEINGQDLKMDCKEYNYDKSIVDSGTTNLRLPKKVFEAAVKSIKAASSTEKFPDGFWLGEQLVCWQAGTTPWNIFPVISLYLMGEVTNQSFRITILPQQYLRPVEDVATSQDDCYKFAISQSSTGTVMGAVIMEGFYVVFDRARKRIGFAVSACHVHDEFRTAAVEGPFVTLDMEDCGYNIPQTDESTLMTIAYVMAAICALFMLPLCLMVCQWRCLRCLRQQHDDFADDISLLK

Question: With CSCCC(NC(=O)[C@@H](NC(=O)OC(C)(C)C)C(C)C)C(=O)N[C@@H](CC(C)C)C(O)CC(C)C(=O)N[C@H](C(=O)NCc1ccccc1)C(C)C (some centres undefined) as the compound, how does the Ki read?
Answer: 2.5 nM

Question: Which Ki does the source give for CC(C)C[C@H](NC(=O)C(NC(=O)[C@@H](NC(=O)OC(C)(C)C)C(C)C)C(N)=O)C(O)CC(C)C(=O)N[C@H](C(=O)NCc1ccccc1)C(C)C (some centres undefined) here?
Answer: 5.9 nM

Question: For CC(C)C[C@H](NC(=O)C(NC(=O)[C@@H](NC(=O)OC(C)(C)C)C(C)C)C(N)=O)C(O)CC(C)C(=O)N[C@@H](C)C(=O)NCc1ccccc1 (some centres undefined), which Ki is on record?
Answer: 61.4 nM

Question: With CSCCC(NC(=O)OC(C)(C)C)C(=O)N[C@@H](CC(C)C)C(O)CC(C)C(=O)N[C@H](C(=O)NCc1ccccc1)C(C)C (some centres undefined) as the compound, how does the Ki read?
Answer: 58.8 nM

Question: For CC(C)C[C@H](NC(=O)[C@H](CS(C)(=O)=O)NC(=O)OC(C)(C)C)C(O)CC(C)C(=O)N[C@H](C(=O)NCc1ccccc1)C(C)C (some centres undefined), which Ki is on record?
Answer: 1130 nM

Question: CC(C)C[C@H](NC(=O)[C@@H](NC(=O)OC(C)(C)C)C(N)=O)C(O)CC(C)C(=O)N[C@@H](C)C(=O)NCc1ccccc1 (some centres undefined) was tested. Which Ki did it give?
Answer: 22400 nM

Question: How did the Ki turn out when CSCC(NC(=O)[C@@H](NC(=O)OC(C)(C)C)C(C)C)C(=O)N[C@@H](CC(C)C)C(O)CC(C)C(=O)N[C@H](C(=O)NCc1ccccc1)C(C)C (some centres undefined) was run?
Answer: 50.1 nM

Question: Which Ki does the source give for CC(C)C[C@H](NC(=O)[C@@H](N)CCC(=O)O)C(=O)N[C@@H](CC(=O)O)C(=O)N[C@@H](CC(C)C)C(=O)C(O)CN[C@@H](C)C(=O)N[C@H](C(=O)N[C@@H](CCC(=O)O)C(=O)N[C@@H](Cc1ccccc1)C(=O)O)C(C)C (some centres undefined) here?
Answer: 0.3 nM

Question: For CC(C)C[C@H](NC(=O)C(CS(C)(=O)=O)NC(=O)[C@@H](NC(=O)OC(C)(C)C)C(C)C)C(O)CC(C)C(=O)N[C@H](C(=O)NCc1ccccc1)C(C)C (some centres undefined), which Ki is on record?
Answer: 9.4 nM

Question: With CC(C)C[C@H](NC(=O)[C@@H](NC(=O)OC(C)(C)C)C(N)=O)C(O)CC(C)C(=O)N[C@H](C(=O)NCc1ccccc1)C(C)C (some centres undefined) as the compound, how does the Ki read?
Answer: 3130 nM

Source: ChEMBL document CHEMBL1137231, “Efficient evaluation of binding free energy using continuum electrostatics solvation” (J Med Chem, 2004)
